This note sets out measurements from paper PMC11983575, “Study on the synthesis and biological activity of kojic acid triazol thiosemicarbazide Schiff base derivatives” (Journal of Enzyme Inhibition and Medicinal Chemistry, 2025).

A short description of assay [1]: DPPH free radical scavenging activity assay. As to conditions: DPPH 150 μM, 30 min, 517 nm; read-out: DPPH/IC50 (μM) ± SD. On the procedure:
The anti-oxidation effect on DPPH radical was determined by a slightly modified version of a previously described DPPH radical scavenging assay. Reaction mixtures consisted of 100 μl of DPPH (150 μM), 20 μl of increasing concentration of test compounds and the volume was adjusted to 200 μl in each well with DMSO. The assay solution was then incubated at room temperature (25 °C) for 30 min in the dark. After the incubation, absorbance at 517 nm was measured by using UV-2600 spectrophotometer. The experiments were undertaken in triplicate. DMSO was used as a control. Ascorbic acid was used as antioxidant standard for comparison of the activity. The calculation of DPPH radical scavenging activity was followed by this formula: DPPH radical scavenging activity %=absorbance of standard−absorbance of sample/Absorbance of standard×100
A general note: The DPPH test is a chemical assay of radical scavenging.

A further assay has as its target mushroom tyrosinase (Agaricus bisporus, UniProt C7FF04). In words: In vitro mushroom tyrosinase inhibition (L-DOPA substrate). It is filed as biochemical. As to conditions: 475 nm, read-out: IC50 (μM) ± SD, inhibitory tyrosinase activity. Here is the method: The mushroom tyrosinase inhibitory activity was determined according to previous described method. Briefly, 168 μl of phosphate buffer (0.1 M, pH 6.8), 10 μl of mushroom tyrosinase (0.5 mg/ml, Sigma Chemical, St. Louis, MO) and 2 μl of the inhibitor solution were placed in the wells of a 96-well micro plate. After pre-incubation for 20 min at 37 °C, 20 μl of 2.0 mg/ml L-DOPA (3,4-dihydroxyphenylalanine, Sigma Chemical, St. Louis, MO) was added and the enzyme activity was measured at 475 nm every 60 s for 180 s in a Microplate Reader (Bio-Rad Laboratories, Inc., Hercules, CA). Kojic acid and phosphate buffer were respectively used as positive and negative control. The extent of inhibition by the test compounds was expressed as the percentage of concentration necessary to achieve 50% inhibition (IC50). The percentage of inhibition was calculated as follows: inhibitory rate (%) = [Ac − At)/Ac] × 100. Ac is the absorbance of the negative control and At is the absorbance of the test compound. Each concentration was analysed in three independent experiments run in triplicate. The IC50 values were determined by the data analysis software GraphPad Prism 8 (La Jolla, CA).
The tyrosinase inhibition measurements of compounds 6a–6x were carried out using L-DOPA as substrate. Kojic acid was selected as a positive control compound. […]. […] Moreover, inhibitory activity of compound with hydroxyl group at papa position is better than the inhibitory activity of compound with hydroxyl group at meta position, and inhibitory activity of compound with hydroxyl group at meta position is better than the inhibitory activity of compound with hydroxyl group at ortho position. […]. […] In addition, with the increase of atomic radius, the inhibitory activity gradually decreases. (3) The inhibitory activity of alkoxy substituted compound is better than that of alkyl substituted compound. (4) Comparing the tyrosinase inhibitory activity of compounds with halogen atom (6b–6d, 6q–6s) and compounds with methyl or methoxy (6e–6f, 6t–6u), when the hydrogen (R^2) was replaced by the methyl (R^2), the inhibitory activity was decreased.

The nature of assay [2]: ABTS radical cation scavenging activity assay. Conditions: 734 nm; read-out: ABTS+/IC50 (μM) ± SD. Here is the method: ABTS free radical scavenging activity was performed according to the procedure described by Zhang et al.[40] Test solution of ABTS decolourisation assay was prepared by mixing 2.45 mM potassium persulfate and 7 mM ABTS at 8:12 volume/volume ratio. The working solution was kept in the dark at room temperature for 12–18 h. Before ABTS radical scavenging test, the ABTS test solution was diluted with DMSO to absorbance of 0.7 (±0.02) at 734 nm. One millilitre of diluted ABTS test solution was added to 10 μl of DMSO or test sample. After initial mixing, the working solution was kept in the dark at room temperature for 2–6 min, and the absorbance was measured at 734 nm. This test was carried out in triplicate. DMSO was used as a control. Ascorbic acid was used as antioxidant standard for comparison of the activity. The absorbance of test samples was calculated by the following formula. ABTS scavenging ability %=absorbance of standard−absorbance of sample/absorbance of standard×100.

mushroom tyrosinase, sequence (C7FF04 1-392): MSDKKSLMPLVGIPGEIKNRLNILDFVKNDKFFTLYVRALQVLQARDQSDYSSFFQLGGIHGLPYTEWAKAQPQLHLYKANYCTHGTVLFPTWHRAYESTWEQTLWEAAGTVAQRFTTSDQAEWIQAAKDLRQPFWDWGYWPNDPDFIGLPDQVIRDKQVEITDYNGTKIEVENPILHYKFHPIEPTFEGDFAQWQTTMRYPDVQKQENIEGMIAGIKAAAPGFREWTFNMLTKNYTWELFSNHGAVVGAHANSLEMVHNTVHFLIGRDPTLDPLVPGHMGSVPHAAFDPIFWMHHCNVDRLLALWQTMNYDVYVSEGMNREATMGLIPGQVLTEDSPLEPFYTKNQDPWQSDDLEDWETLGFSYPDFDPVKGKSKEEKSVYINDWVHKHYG

Take “2-(4-((1-((5-Hydroxy-4-oxo-4H-pyran-2-yl)methyl)-1H-1,2,3-triazol-5-yl)methoxy)-3-methoxybenzylidene)hydrazinecarbothioamide [Compound 6n]”: the results for the IC50 (in assay [1]; on mushroom tyrosinase; in assay [2]) were 176.2 ± 0.061 µM, 8.4 ± 0.009 µM and 44.4 ± 0.068 µM, respectively.
On to “2-(4-((1-((5-Hydroxy-4-oxo-4H-pyran-2-yl)methyl)-1H-1,2,3-triazol-5-yl)methoxy)-3-methylbenzylidene)hydrazinecarbothioamide [Compound 6o]”, for which the IC50 in assay [1] was 193.9 ± 0.022 µM; on mushroom tyrosinase, 12.38 ± 0.014 µM; in assay [2], 17.95 ± 0.048 µM.
Taken in the same sequence, the figures for “2-(4-((1-((5-Hydroxy-4-oxo-4H-pyran-2-yl)methyl)-1H-1,2,3-triazol-5-yl)methoxy)benzylidene)hydrazinecarbothioamide [Compound 6m]” were 195 ± 0.038 µM, 1.58 ± 0.092 µM and 36.17 ± 0.018 µM.
